Experimental data from US20140309296A1, “BUDIODARONE FORMULATIONS” (Armetheon, Inc., priority 2013, published 2014).
Read-outs that look alike come from different tables or passages of the source.

Legend:
[1] = Solubility of budiodarone tartrate in water containing various amounts of benzyl alcohol (Example 3); type: physicochemical
Description: Three series of samples were prepared. […] The vials were then capped and the mixtures were vortexed on a VWR Genie 2 vortexer at maximum speed for 3×10 sec duration. The final concentrations of budiodarone were 25 mg/ml, 50 mg/ml, and 100 mg/ml in water containing benzyl alcohol from 0.5% to 11% v/v. The vials were kept in the dark for 24 hours and analyzed by HPLC as per Example 1 Conditions 1.
The results are shown in FIG. 1, where the amount of budiodarone in solution is plotted as a function of the benzyl alcohol concentration. […] For example, at 25 mg/ml, budiodarone is soluble in approximately 1.5% to 4.5% v/v of benzyl alcohol. At 50 mg/ml, budiodarone is soluble in approximately 3% to 6% benzyl alcohol. At 100 mg/ml, budiodarone is soluble in approximately 4% to 8% benzyl alcohol.

[2] = Solubility of budiodarone tartrate in different co-solvents (Example 5); type: physicochemical; conditions: co-solvent 3.6% to 14.4% in water, 25 mg/ml, 24 hours
Description: Co-solvents that are routinely used in injectable pharmaceutical preparations were studied. These were dimethylacetamide (DMA), dimethylsulfoxide (DMSO), ethanol (EtOH), and N-methylpyrrolidone (NMP). Samples were prepared as described in Table 4 below.
Samples were prepared by mixing all three components together as in previous examples, using a vortexer at maximum speed for 3×10 sec. Samples were then left in the dark for 24 hours and analyzed by HPLC following centrifugation to precipitate any insoluble material.

[3] = Low ratio of benzyl alcohol to budiodarone in water and 5% dextrose solution, stability (Example 9); type: physicochemical; conditions: 2.14/1 molar ratio, 25 mg/ml, room temperature
Description: The methanol was evaporated at 36° C. under partial vacuum (30 mmHg) to yield a thin film. To this residue was added 5 ml of water. The sample was then vortexed and a clear 25 mg/ml solution of budiodarone tartrate was obtained. A small aliquot was diluted 25 times with methanol and analyzed by HPLC (Sample 1). To the flask was then added 250 mg of D-(+)-glucose (also known as dextrose), resulting in a clear solution of 25 mg/ml budiodarone tartrate in 5% dextrose (D5W). A small sample was analyzed by HPLC (Sample 2).
Sample 2 is then analyzed over time to check physical and/or chemical stability in solution (Table 9).

[4] = Budiodarone concentration attainable in hyperconcentrated solutions (Examples 16-18); type: physicochemical
Description: The benzyl alcohol/budiodarone tartrate solution is viscous and therefore direct measurement of the budiodarone concentration is difficult. A better way to measure budiodarone concentration in the solution of benzyl alcohol and budiodarone oil or in a hyperconcentrated solution is by using an indirect method. In this example, the volume of the benzyl alcohol/budiodarone mixture was measured, which in turn allowed for the calculation of an accurate budiodarone concentration.
In each of five vials of accurately known volume, budiodarone tartrate (250 mg) and benzyl alcohol (91 μl) were mixed in order to make a 3/1 mixture (mol/mol). Then the solution was mixed thoroughly in order to make a clear solution. This was aided with the help of warming to 50° C. for 3 minutes in order to reduce the viscosity of the mixture. The weight of the vial containing the 3:1 mixture of benzyl alcohol/budiodarone was then recorded. Vial number 1 was filled with silicon oil of density d=0.964 and weighed again. The difference in weight provided the weight of the silicon oil added. This, divided by the density of the silicon oil provided the volume of silicon oil necessary to fill the vial. The difference with the known volume of the vial represents the volume of the benzyl alcohol/budiodarone mixture. To Vial numbers 2, 3, 4, and 5 was added 50, 100, 200, and 400 μl of water, respectively. The contents of the vials were then thoroughly mixed in order to get hyperconcentrated solutions of different volumes and different budiodarone concentrations. The volumes of these hyperconcentrations using silicon oil were measured as described above.
The same experiment as Example 16 was replicated, using mixtures of 5/1 ratio (250 mg of budiodarone tartrate and 152 μl of benzyl alcohol) and various volumes of water added. Using the same procedure as Example 16, a maximum calculated budiodarone concentration of 737 mg/ml and a maximum benzyl alcohol concentration of 45% (v/v) were found.
Similarly, the experiment in Example 16 was replicated, using a 1/1 mixture (250 mg of budiodarone tartrate and 30 μl of benzyl alcohol). A maximum calculated budiodarone concentration of 1,136 mg/ml and a maximum benzyl alcohol concentration of 13.6% (v/v) were found.

[5] = test system: sodium, potassium, and calcium ion channels; conditions: animals; cited from earlier work
[6] = test system: subjects with paroxysmal atrial fibrillation who had implanted pacemakers; conditions: cited from earlier work
[7] = cited from earlier work
[8] = molecular target: cytochrome P450 2C9 (CYP2C9) (Homo sapiens, UniProt P11712); conditions: cited from earlier work
[9] = test system: patients with paroxysmal atrial fibrillation (PAF); conditions: 12 weeks, cited from earlier work; for median reduction in AFB: compared to placebo
[10] = pre-clinical safety testing; cited from earlier work

Chain of cytochrome P450 2C9 (CYP2C9) (P11712 whole entry): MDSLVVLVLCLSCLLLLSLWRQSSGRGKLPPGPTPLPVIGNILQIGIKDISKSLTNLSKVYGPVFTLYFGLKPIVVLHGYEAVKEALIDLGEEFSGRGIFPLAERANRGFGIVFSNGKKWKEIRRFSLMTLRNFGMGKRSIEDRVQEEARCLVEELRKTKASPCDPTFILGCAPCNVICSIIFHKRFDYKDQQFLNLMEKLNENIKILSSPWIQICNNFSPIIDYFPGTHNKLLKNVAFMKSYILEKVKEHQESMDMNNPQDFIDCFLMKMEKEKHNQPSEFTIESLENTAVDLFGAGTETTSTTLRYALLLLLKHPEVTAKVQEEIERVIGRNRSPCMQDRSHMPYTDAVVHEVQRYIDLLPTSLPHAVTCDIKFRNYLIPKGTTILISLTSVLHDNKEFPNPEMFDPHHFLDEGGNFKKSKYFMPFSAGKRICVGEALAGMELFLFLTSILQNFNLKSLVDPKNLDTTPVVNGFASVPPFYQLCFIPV

CC[C@H](C)OC(=O)Cc1oc2ccccc2c1C(=O)c1cc(I)c(OCCN(CC)CC)c(I)c1 [budiodarone, (1S)-1-methylpropyl 2-(3-{4-[2-(diethylamino)ethoxy]-3,5-diiodobenzoyl}benzofuran-2-yl)acetate]
molar ratio above which budiodarone was not fully soluble in water (phase separation) [1]: approximately 11/1 | lower limit of the molar ratio of benzyl alcohol to budiodarone that forms in solution ([1]; 25-100 mg/ml): approximately 5/1 | amount of solubilized budiodarone in the presence of DMA, DMSO, EtOH, or NMP [2]: not significantly different from the amount solubilized in water alone | time for which the low molar ratio is stable in D5W [3]: about 120 hours | maximum calculated budiodarone concentration ([4]; 1/1 mixture): 1,136 mg/ml | calculated maximum budiodarone concentration ([4]; 3:1 molar ratio of benzyl alcohol/budiodarone): 890 mg/mL | maximum calculated budiodarone concentration ([4]; 5/1 ratio): 737 mg/mL | atrial effects [5]: increased St-A and A-H intervals | inhibition of sodium, potassium, and calcium ion channels [5]: inhibition comparable with amiodarone | left and right atrial refractoriness [5]: increased left and right atrial refractoriness comparable with amiodarone | ventricular effects [5]: increased MAPD90 and QT-interval | mean AFB (SD) ([6]; 200 mg bid): 5.2 ± 4.2% | mean AFB (SD) ([6]; 400 mg bid): 5.2+5.2% | mean AFB (SD) ([6]; 600 mg bid): 2.8+3.4% | mean AFB (SD) ([6]; 800 mg bid): 1.5 ± 0.5% | decrease in AFB ([6]; at all doses (200 to 800 mg bid)): at least 70% | Mean episode duration (SD) ([6]; p2 (200 mg bid)): 1.7+2.5 h | relative reduction (RR) in AFB from baseline ([6]; p2 (200 mg bid)): 71.2 ± 31.3% | Mean episode duration (SD) ([6]; p3 (400 mg bid)): 0.6+0.7 h | relative reduction (RR) in AFB from baseline ([6]; p3 (400 mg bid)): 71.7 ± 20.6% | Mean episode duration (SD) ([6]; p4 (600 mg bid)): 0.1+0.2 h | relative reduction (RR) in AFB from baseline ([6]; p4 (600 mg bid)): 79.9 ± 26.4% | Mean episode duration (SD) ([6]; p5 (800 mg bid)): 0.5+0.7 h | relative reduction (RR) in AFB from baseline ([6]; p5 (800 mg bid)): 86.8 ± 9.8% | number of AF episodes ([6]; treatment periods and washout): increased initially | Mean episode duration (SD) ([6]; washout): 2.4+3.0 h | mean AFB (SD) ([6]; washout): 11.7+14.0% | Mean trough level ([7]; 200 mg bid oral): 2.4 ± 0.9 ng/mL | Mean trough level ([7]; 400 mg bid oral): 5.2 ± 1.7 ng/mL | Mean trough level ([7]; 600 mg bid oral): 13.1 ± 5.6 ng/mL | Mean trough level ([7]; 800 mg bid oral): 19.8 ± 17.9 ng/mL | trough level ([7]; washout): 0.3+0.4 ng/mL | inhibition of CYP2C9 [8]: inhibitor | median reduction in AFB ([9]; 400 mg BID): 54.4% | median reduction in AFB ([9]; 600 mg BID): 75.5% | median reduction in AFB ([9]; 600 mg BID, listed as Budiodarone): up to 75.5% | safety ([9]; 200, 400 or 600 mg BID): no drug-related SAEs | findings in canine testes [10]: Non-specific but potentially toxic findings
